The numbers were not newly measured in patent US8389009B2, “Spatial control of signal transduction” (Wisconsin Alumni Research Foundation, priority 2005, dated 2013), which cites them from elsewhere.

Data set [1] addresses T1, VEGF (Homo sapiens, UniProt P15692).
T1 sequence (P15692 27-191 isoform P15692-4): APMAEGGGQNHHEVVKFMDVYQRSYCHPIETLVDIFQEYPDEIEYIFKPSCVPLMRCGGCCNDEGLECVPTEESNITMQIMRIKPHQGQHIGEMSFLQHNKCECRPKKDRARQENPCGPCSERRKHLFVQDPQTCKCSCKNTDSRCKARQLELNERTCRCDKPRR
The settings on record: handle for VEGF; literature value; read-out: Affinity (KD).

The target in data set [2] is T2, IGF-1 (Homo sapiens, UniProt P05019). The conditions noted are these: handle for IGF-1; literature value; read-out: Affinity (KD).
The target in data set [3] is T2, IGF-1. The conditions noted are these: natural receptor binding IGF-1, according to previous studies; read-out: affinity (dissociation constant KD).
Data set [4] concerns the target T1, VEGF. The settings on record: natural receptor binding VEGF, according to previous studies; read-out: affinity (dissociation constant KD).

Where two headings read alike, the source gives them in different places.

T2 sequence (P05019 49-118 limits assumed): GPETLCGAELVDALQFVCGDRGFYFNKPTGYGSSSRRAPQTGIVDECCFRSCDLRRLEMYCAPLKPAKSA

As a reminder, the Kd is the constant that tells how readily two partners part at equilibrium. Consider “AAGAAACGGAAGAAUUGGAGACACGCUCGU (chemistry not given here) [SEQ ID NO: 2]”, for which, in the data set with VEGF [1], the Kd is 1 nM.

For “AGUUUUGGAAGAAUUGGAUGUUCCGAUCGU (chemistry not given here) [SEQ ID NO: 3]”, the Kd with VEGF [1] was 10 nM. AUGCAGUUUGAGAAGUCGCGGAU [SEQ ID NO: 1]: the Kd with VEGF [1] was 0.01 nM.

For the molecule EELWCFDGPRAWVCGYVK [SEQ ID NO: 7], the Kd on VEGF [1] was 10000 nM. Turning to “GGAAGAAUUGGUCAUCGUCGUCUCCGCCUCCC (chemistry not given here) [SEQ ID NO: 4]”, the Kd with VEGF [1] is 100 nM.

With HDCFASVEALRRCMY [SEQ ID NO: 9], the Kd at IGF-1 [2] is 500 nM. With RNCFESVAALRRCMY [SEQ ID NO: 8], the Kd at IGF-1 [2] is 100 nM. For the molecule VEPNCDIHVMWEWECFERL [SEQ ID NO: 5], on VEGF [1], the Kd was 200 nM.

As for VTCAADALGFLYCWE [SEQ ID NO: 10], the Kd at IGF-1 [2] was 2000 nM.

Turning to “natural IGF-1 receptor: natural cell surface receptor that binds IGF-1”, the Kd with IGF-1 [3] was ~0.16 nM.

B1: natural VEGF receptor 1: natural cell surface receptor that binds VEGF (protein, UniProt P17948 27-1338, looked up)
Vascular endothelial growth …: SKLKDPELSLKGTQHIMQAGQTLHLQCRGEAAHKWSLPEMVSKESERLSITKSACGRNGKQFCSTLTLNTAQANHTGFYSCKYLAVPTSKKKETESAIYIFISDTGRPFVEMYSEIPEIIHMTEGRELVIPCRVTSPNITVTLKKFPLDTLIPDGKRIIWDSRKGFIISNATYKEIGLLTCEATVNGHLYKTNYLTHRQTNTIIDVQISTPRPVKLLRGHTLVLNCTATTPLNTRVQMTWSYPDEKNKRASVRRRIDQSNSHANIFYSVLTIDKMQNKDKGLYTCRVRSGPSFKSVNTSVHIYDKAFITVKHRKQQVLETVAGKRSYRLSMKVKAFPSPEVVWLKDGLPATEKSARYLTRGYSLIIKDVTEEDAGNYTILLSIKQSNVFKNLTATLIVNVKPQIYEKAVSSFPDPALYPLGSRQILTCTAYGIPQPTIKWFWHPCNHNHSEARCDFCSNNEESFILDADSNMGNRIESITQRMAIIEGKNKMASTLVVADSRISGIYICIASNKVGTVGRNISFYITDVPNGFHVNLEKMPTEGEDLKLSCTVNKFLYRDVTWILLRTVNNRTMHYSISKQKMAITKEHSITLNLTIMNVSLQDSGTYACRARNVYTGEEILQKKEITIRDQEAPYLLRNLSDHTVAISSSTTLDCHANGVPEPQITWFKNNHKIQQEPGIILGPGSSTLFIERVTEEDEGVYHCKATNQKGSVESSAYLTVQGTSDKSNLELITLTCTCVAATLFWLLLTLFIRKMKRSSSEIKTDYLSIIMDPDEVPLDEQCERLPYDASKWEFARERLKLGKSLGRGAFGKVVQASAFGIKKSPTCRTVAVKMLKEGATASEYKALMTELKILTHIGHHLNVVNLLGACTKQGGPLMVIVEYCKYGNLSNYLKSKRDLFFLNKDAALHMEPKKEKMEPGLEQGKKPRLDSVTSSESFASSGFQEDKSLSDVEEEEDSDGFYKEPITMEDLISYSFQVARGMEFLSSRKCIHRDLAARNILLSENNVVKICDFGLARDIYKNPDYVRKGDTRLPLKWMAPESIFDKIYSTKSDVWSYGVLLWEIFSLGGSPYPGVQMDEDFCSRLREGMRMRAPEYSTPEIYQIMLDCWHRDPKERPRFAELVEKLGDLLQANVQQDGKDYIPINAILTGNSGFTYSTPAFSEDFFKESISAPKFNSGSSDDVRYVNAFKFMSLERIKTFEELLPNATSMFDDYQGDSSTLLASPMLKRFTWTDSKPKASLKIDLRVTSKSKESGLSDVSRPSFCHSSCGHVSEGKRRFTYDHAELERKIACCSPPPDYNSVVLYSTPPI
On to B1, for which, in the data set with VEGF [4], the dissociation constant Kd was ~0.0075 nM.
